Where “and” joins values, the source holds several entries; their conditions need not be identical. Equal entries are not always repeated. Where two headings read alike, the source gives them in different places.
Assays:
[1] = system: SARS-CoV-2-Nluc; test: microbe, parasite or virus in culture; type: cell-based
[2] = system: SARS-CoV-2-Nluc; test: microbe, parasite or virus in culture; type: cell-based; remark: listed apart in the source
[3] = system: A549-hACE2 cells; conditions: human
[4] = system: plasma protein; conditions: data from literature; cited from earlier work
[5] = human exposures in the clinics, cited from earlier work; for Cmax: read-out: Exposure (μM): Cmax
[6] = system: COVID-19; conditions: human, in vivo; cited from earlier work
[7] = system: icSARS-CoV-2-mNG; type: cell-based, SARS-CoV-2
[8] = Severe acute respiratory syndrome coronavirus 2, Vero C1008
[9] = Severe acute respiratory syndrome coronavirus 2, Vero C1008, 48 h
[10] = Severe acute respiratory syndrome coronavirus 2
[11] = Severe acute respiratory syndrome coronavirus 2, 48 h

Molecule	EC50 [2, 10] [µM]	EC50 [2, 11] [µM]	CC50 [3] [µM]	EC50 [2] [µM]	SI (selectivity index) [2]	Plasma protein binding (%) [4] [%]	Exposure (μM): Cmin [5] [µM]	Cmax [5] [µM]	further results
CCN(CC)CCCC(C)Nc1ccnc2cc(Cl)ccc12 (centres unmarked) [Chloroquine]	1.32	1.32	> 50						EC50 [1, 8]: 3.52 µM; EC50 [1, 9]: 3.52 µM
Cc1c(O)cccc1C(=O)N[C@@H](CSc1ccccc1)[C@H](O)CN1C[C@H]2CCCC[C@H]2C[C@H]1C(=O)NC(C)(C)C [Nelfinavir]	0.77 to 2.74	0.77 to 2.74	12 ± 1.3	0.77	16 and 15.7	>98	2.6	8.3	
CCC(CC)COC(=O)[C@H](C)N[P@](=O)(OC[C@H]1O[C@@](C#N)(c2ccc3c(N)ncnn23)[C@H](O)[C@@H]1O)Oc1ccccc1 [Remdesivir]	0.115	0.115			284				EC50 [1, 8]: 1.28 µM; EC50 [1, 9]: 1.28 µM
Cc1cc(/C=C/C#N)cc(C)c1Nc1ccnc(Nc2ccc(C#N)cc2)n1 [Rilpivirine]		7.8 ± 1.04	14.6 ± 1.6			99.7	0.30	0.83	
CC(C)(C)NC(=O)[C@@H]1C[C@@H]2CCCC[C@@H]2CN1C[C@@H](O)[C@H](Cc1ccccc1)NC(=O)[C@H](CC(N)=O)NC(=O)c1ccc2ccccc2n1 [Saquinavir]		8 to 9	35.1 ± 11.7	8.95 ± 0.31	3.9	98	0.65	3.7	
CC(C)OC(=O)[C@H](C)N[P@](=O)(CO[C@H](C)Cn1cnc2c(N)ncnc21)Oc1ccccc1 [Tenofovir alafenamide]		> 10	> 50			80		0.4	activity against SARS-CoV-2-Nluc (in words) [2]: inactive
CCC[C@@]1(CCc2ccccc2)CC(O)=C([C@H](CC)c2cccc(NS(=O)(=O)c3ccc(C(F)(F)F)cn3)c2)C(=O)O1 [Tipranavir]		8 to 9	28.4 ± 0.5	8.65 ± 0.16	3.3	99.9	30.8	130	
CC[C@H]1OC(=O)[C@H](C)[C@@H](O[C@H]2C[C@@](C)(OC)[C@@H](O)[C@H](C)O2)[C@H](C)[C@@H](O[C@@H]2O[C@H](C)C[C@H](N(C)C)[C@H]2O)[C@](C)(O)C[C@@H](C)CN(C)[C@H](C)[C@@H](O)[C@]1(C)O [azithromycin]									fatality rate among hospitalized patients (in words) [6]: not associated with significant differences in fatality rate
CCN(CCO)CCCC(C)Nc1ccnc2cc(Cl)ccc12 (centres unmarked) [hydroxychloroquine]									fatality rate among hospitalized patients (in words) [6]: not associated with significant differences in fatality rate
IFN-α									EC50 (concentration inhibiting 50% of viral replication) [7]: 101 u/ml; mNG expression (visual) [7]: No mNG expression was visually observed; mNG signal [7]: dose-dependent reduction of mNG signal

Source: patent US20230416692A1 (BOARD OF REGENTS, THE UNIVERSITY OF TEXAS SYSTEM, priority 2020, published 2023)
